Data taken from publication PMC10141386, “The Blockade of Mitogen-Activated Protein Kinase 14 Activation by Marine Natural Product Crassolide Triggers ICD in Tumor Cells and Stimulates Anti-Tumor Immunity” (Marine Drugs, 2023).
pIC50: −log10 of the molar value.

Target: MAPK14 (p38 alpha) (Homo sapiens, UniProt Q16539)
Assay: Z′-LYTE FRET kinase assay (SelectScreen, MAPK14 direct, Ser/Thr […] peptide)
Format: biochemical

Chain of MAPK14 (p38 alpha) (Q16539 2-360): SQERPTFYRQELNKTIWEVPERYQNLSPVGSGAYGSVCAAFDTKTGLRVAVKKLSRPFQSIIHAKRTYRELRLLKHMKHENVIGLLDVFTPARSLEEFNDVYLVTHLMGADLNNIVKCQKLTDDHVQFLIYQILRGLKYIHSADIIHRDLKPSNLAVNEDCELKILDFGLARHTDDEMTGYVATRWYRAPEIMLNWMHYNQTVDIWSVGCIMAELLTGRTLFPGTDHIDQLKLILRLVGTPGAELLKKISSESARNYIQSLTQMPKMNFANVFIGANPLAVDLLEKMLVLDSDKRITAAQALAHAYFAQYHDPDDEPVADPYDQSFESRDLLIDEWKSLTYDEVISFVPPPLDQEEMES

Question: C=C1C(=O)OC2C1C(OC(C)=O)C/C(C)=C/CC(OC(C)=O)/C(C)=C/CC(OC(C)=O)C1(C)OC21 (stereo not shown) [crassolide] was tested. Which pIC50 did it give?
Answer: ~5.29
